Results published in article PMC10994559 (PLOS Neglected Tropical Diseases, 2024).
Where two headings read alike, the source gives them in different places.

What was measured:
T. brucei brucei BSF = assay: T. brucei BSF viability, resazurin reduction; type: cell-based, Trypanosoma brucei brucei; conditions: Trypanosoma brucei; for viability at 2.5 µM: read-out: viability, T.brucei (2.5 µM); for viability at 25 µM: read-out: viability, T.brucei (25 µM)
Protocol: T. brucei brucei (strain 427 Lister) blood stream form (BSF) parasites were passaged in complete HMI-9 media supplemented with 10% FCS, Pen-Strep (0.1%) and 2-mercaptoethanol (0.014 v/v) and kept in a 37° C CO2 incubator in filter-cap flasks.
(§1) Viability of T. brucei brucei BSF and T. cruzi trypomastigotes was assayed with fluorescence resazurin reduction assay, essentially as described above. […] Next, selected compounds were tested at 2.5 μM concentration, and promising compounds subjected to 18 concentrations dose response analyses. AN3057 and AmB were used as a control drug in T. brucei and T. cruzi, respectively.

[1] = system: L. infantum promastigotes; assay: L. infantum promastigote viability, resazurin reduction; type: cell-based, Leishmania infantum; conditions: Leishmania infantum, sheet LTC_compound_viability, value ± spread; for viability at 2.5 µM: read-out: viability, L. infantum promastigote (2.5 µM); for viability at 25 µM: read-out: viability, L. infantum promastigote (25 µM)
Source text: (§2) The infectivity of the parasites was boosted by passaging in Balb/c mice and culturing the infected lymph nodes after six weeks. L. infantum (MHOM / BR / 76 / M4192) parasite was passaged in the same media formulation with 0.5% urine.

T. cruzi trypomastigotes = assay: T. cruzi viability, resazurin reduction; type: cell-based, Trypanosoma cruzi; conditions: Trypanosoma cruzi; for viability at 2.5 µM: read-out: viability, T.cruzi (2.5 µM); for viability at 25 µM: read-out: viability, T.cruzi (25 µM)
Protocol: T. cruzi (Y strain) trypomastigotes were passaged in liver infusion broth media supplemented with tryptose, NaCl, Na2HPO4, KCl, glucose, hemin, Pen-Strep (1%), 10% FCS (pH: 7.2) and kept at 28°C.
as §1

[2] = system: L. major axenic amastigotes; assay: L. major axenic amastigote viability, resazurin reduction; conditions: Leishmania major
Protocol: L. major LV561(MHOM/IL/67/LRC-L137 JERICHO II) amastigotes were passaged in Grace insect medium supplemented with NaHCO3, 0.1% amikin and 20% of FCS (pH: 5.4) and kept at 33°C.
Exponential growth phase promastigotes of L. major or L. infantum and axenic amastigotes (L. major) were harvested and seeded in 384 well plates (white, non-transparent, tissue culture treated, flat bottom; Corning) (0.5x10^5 cells per well). Compounds were pre-dispensed into the plate with an Echo 650 acoustic dispenser (Beckman Coulter). After 72h incubation, resazurin was added (1:10 v/v) from a […] stock in PBS, followed by incubation for six hours. Then, fluorescence intensity was measured using a microplate reader (Synergy H1, BioTek) with excitation filter: 550 nm and emission filter: 590 nm. Efficient compounds were selected for the next round of viability assay with 2.5 μM concentrations of the compounds. […] All experiments were performed with AmB as a positive control drug in parallel.
Axenic amastigotes, the relevant form that persists in the infected host, were generated in the lab through established procedures, employing harsh pH (pH 5) and high temperature (33°C) conditions.

[3] = system: intracellular L. infantum amastigotes; assay: Parasite rescue assay (intramacrophage, J774 infected with L. infantum); type: cell-based, Leishmania infantum; conditions: J774, 25 µM; intracellular amastigote; read-out: viability, intracellular L. major amastigote (25 µM)
E. histolytica = E. histolytica viability, ATP luminescence (Cell titer glo); type: cell-based, Entamoeba histolytica; conditions: Entamoeba histolytica; for viability at 2.5 µM: read-out: viability, E.histolytica (2.5 µM); for viability at 25 µM: read-out: viability, E.histolytica (25 µM)
Outline: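 E. histolytica strain B2-5 at 2.5x10^4 cells/ml was exposed to compound for 48 h at 37 °C under anaerobic conditions, with viability read as ATP luminescence (CellTiter-Glo). The primary screen used 25 μM in triplicate, and follow-up potency runs used 9–16-point ranges spanning 0.01–100 μM.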

[4] = Cytotoxicity assay J774, resazurin reduction; type: cell-based, murine; conditions: mouse, J774 macrophage cells; for viability at 72 h, 2.5 µM: read-out: viability, J774 (2.5 µM); for viability at 72 h, 25 µM: read-out: viability, J774 (25 µM)
Protocol: Mammalian cell lines (J774 and HepG2) were passaged in RPMI media supplemented with MEM, Pen-Strep (1%) and 10% FCS. Cultures were kept at 37°C incubator with 5% CO2 in filter-cap flasks.
Murine macrophage cells (J774) and human hepatocyte carcinoma HepG2 cells were seeded at 0.5x10^5 cell/well in 384 well plates in triplicate, exposed to serial dilution of compounds, dispensed using an Echo 650 acoustic dispenser (Labcyte). After incubation for 72 h at 37°C, 5% CO2, cell viability was determined using fluorescence resazurin reduction assay (λEx: 550 nm; λEm: 590 nm).

L. major promastigotes = assay: L. major promastigote viability, resazurin reduction; type: cell-based, Leishmania major; conditions: Leishmania major, read-out: viability, L.major promastigote (25 µM)
Source text: as §2

[5] = read-out: viability, L.major amastigote (25 µM)

Row | Structure (SMILES) | viability at 2.5 µM (T. brucei brucei BSF) [%] | viability at 25 µM (T. brucei brucei BSF) [%] | viability at 2.5 µM [1] [%] | viability at 25 µM [1] [%] | viability at 2.5 µM (T. cruzi trypomastigotes) [%] | viability at 25 µM (T. cruzi trypomastigotes) [%] | melting point [°C] | viability at 25 µM [2, 5] [%] | viability at 25 µM [3] [%] | viability at 2.5 µM (E. histolytica) [%] | viability at 25 µM (E. histolytica) [%] | viability at 72 h, 2.5 µM [4] [%] | viability at 72 h, 25 µM [4] [%] | viability at 25 µM (L. major promastigotes; 72 h) [%] | viability at 25 µM (L. major promastigotes; 25 µM) [%] | viability at 25 µM ([2]; 72 h, read-out: Residual viability, L.major amastigote (25 µM)) [%] | viability at 2.5 µM ([2]; read-out: viability, L.major amastigote(2.5 µM)) [%]
1 | N[C@@H](Cc1ccccc1)[C@@H](O)CNc1ccc(C(F)(F)F)cc1 [LTC-1027, (2S,3S)-3-Amino-4-phenyl-1-((4-(trifluoromethyl)phenyl)amino)butan-2-ol] | 11.2 ± 1.8 | 2.27 ± 0.89 | 77.9 ± 1.82 | 0.64 ± 0.3 | 61.8 ± 2.34 | 12 ± 0.47 | 105 to 107 | 75.5 ± 3.25 | 79.3 ± 16.4 | 79.1 ± 9.1 | 2.09 ± 3.63 | 96.1 ± 4.11 | 99.9 ± 8.05 | 72.2 ± 16.2 | -0.24 ± 0.15 |  | 
2 | N[C@@H](Cc1ccccc1)[C@@H](O)CNc1ccc(F)cc1 [LTC-1026, (2S,3S)-3-Amino-1-((4-fluorophenyl)amino)-4-phenylbutan-2-ol] | 71.2 ± 5.23 | 2.26 ± 0.92 | 84.16 ± 0.61 | 56.98 ± 0.29 | 58.6 ± 1.12 | 57.8 ± 6.73 | 88 to 90 | 59.5 ± 7.56 | 102 ± 4.55 | 65.6 ± 10.1 | 113 ± 30.5 | 94.6 ± 3.96 | -0.01 ± 0.89 | 93.3 ± 1.34 | 34.1 ± 3.37 |  | 
3 | CC(C)(C)c1ccc(NC[C@H](O)[C@@H](N)Cc2ccccc2)cc1 [LTC-1034, (2S,3S)-3-Amino-1-((4-(tert-butyl)phenyl)amino)-4-phenylbutan-2-ol] | 72.8 ± 4.34 | 2.34 ± 1.3 | 68 ± 22.2 | 3.46 ± 0.12 | 60.1 ± 2.2 | 30.8 ± 2.5 | 74 to 76 | 15.2 ± 1.86 | 105 ± 5.69 | 52 ± 6.13 | 123 ± 5.09 | 96.6 ± 5.47 | 64.1 ± 4.5 | 79.3 ± 17.2 | 6.26 ± 1.21 | 15.2 | 73.9 ± 0.76
